From US20050049220A1, “Dosing regimen for Flaviviridae therapy” (priority 2003, published 2005)
Structures can show the parent of a compound that is named as a salt. Where two headings read alike, the source gives them in different places.

Tests used:
[1] = test system: Huh-7 cells; test: Cellular rRNA levels / cytotoxicity in HCV replicon cells; conditions: for log10 RNA reduction at 100 μM, rRNA: 4 days, HCV replicon transfected Huh-7 cells
Source text: In a typical setting, a compound might reduce both the host RNA polymerase activity and the replicon-encoded polymerase activity. Therefore, quantification of rRNA (or any other host RNA polymerase I product) or beta-actin mRNA (or any other host RNA polymerase II) and comparison with RNA levels of the no-drug control is a relative measurement of the effect of the test compound on host RNA polymerases.
With the availability of both the HCV ΔCt data and the rRNA ΔCt, a specificity parameter can be introduced. This parameter is obtained by subtracting both ΔCt values from each other.
IFN-α-2a and ribavirin were tested over a range of concentrations for their ability to reduce the HCV RNA levels in exponentially growing replicon cells after 4 days of exposure as described (Stuyver, L. et al. “A ribonucleoside analogue that blocks the replication of bovine viral diarrhea and hepatitis C viruses in culture” Antimicrob. Agents Chemother. 2003, 47, 244-254).
Gemcitabine was dissolved in DMSO and added to the culture media of a cellular model system of Huh7 cells harboring self-replicating HCV RNA, at final concentrations ranging from […]. In such experiments, one way to express the antiviral effectiveness of a compound is to subtract the threshold reverse-transcriptase polymerase chain reactions (RT-PCR) cycle of the test compound with the average threshold RT-PCR cycle of the negative control. This value is called DeltaCt (ΔCt or dCt). With the availability of both the HCV ΔCt data and the rRNA ΔCt, a specificity parameter can be introduced. This parameter is obtained by subtracting both ΔCt values from each other.

[2] = test system: HCV replicon; test: HCV replicon assay: HCV RNA by Q-RT-PCR, 4 days exposure; type: cell-based, hepatitis C virus (HCV); conditions: for log reduction at 10 µM: read-out: Corrected HCV RNA log10 reduction at 10 μM; for EC90: read-out: Corrected HCV RNA EC90
Protocol: Antiviral screening assays can be done in the same media without G418 as follows: in order to keep cells in logarithmic growth phase, seed cells in a 96-well plate at low density, for example 1000 cells per well. Add the test compound immediate after seeding the cells and incubate for a period of 3 to 7 days at 37° C. in an incubator. Media is then removed, and the cells are prepared for total nucleic acid extraction (including replicon RNA and host RNA). Replicon RNA can then be amplified in a Q-RT-PCR protocol, and quantified accordingly. […] This value is called DeltaCt (ΔCt or DCt).
This value is called DeltaCt (ΔCt or dCt).

[3] = test system: HCV; test: Single treatment of an HCV-infected patient, viral load; type: in vivo, human; conditions: patient with multifocal HCC, cirrhosis, ischaemic hepatitis; HCl
Protocol: The tolerance was acceptable, and thus the next day the patient was given a second dosage of approximately 700 mg of gemcitabine. Before the second dosage the baseline viral load was 6.49 log copies/mL.

[4] = Hepatitis C virus, 96 h, read-out: Corrected HCV RNA log10 reduction at 100 μM
[5] = Hepatitis C virus, 96 h, 100 μM, 4 days, HCV replicon transfected Huh-7 cells, read-out: log10 RNA reduction at 100 μM, HCV
[6] = Hepatitis C virus, 96 h incubation
[7] = Hepatitis C virus, 96 h, 10 μM, corrected for rRNA
[8] = Hepatitis C virus, 96 h, 100 μM, corrected for rRNA, read-out: Corrected HCV RNA log10 reduction at 100 μM
[9] = Hepatitis C virus, Huh-7, 96 h, read-out: log10 RNA reduction at 100 μM, HCV
[10] = 100 μM, 4 days, HCV replicon transfected Huh-7 cells

Row | SMILES | log10 RNA reduction at 100 μM, rRNA [1] | log reduction at 10 µM ([2]; Hepatitis C virus, 96 h) | log reduction at 100 µM [2, 4] | log reduction at 100 µM [2, 5] | EC90 [2, 6] | other results
1 | O=c1[nH]c(=O)n([C@H]2C[C@H](O)[C@@H](CO)O2)cc1F [2′-deoxy-5-fluorouridine] | 0.73 ± 0.35 log10 | 0.23 ± 0.05 | 0.04 ± 0.25 | 0.76 ± 0.06 | > 100 µM | –
2 | Cc1c(-c2ccc(-c3ccccc3F)cc2)nc2ccc(F)cc2c1C(=O)O [Brequinar (NSC-368390), Brequinar] | 0.29 ± 0.01 log10 | – | – | -0.05 ± 0.05 | > 100 µM | log reduction at 10 µM [2, 7]: -0.17 ± 0.09; log reduction at 100 µM [2, 8]: -0.34 ± 0.04
3 | O=c1cnn([C@@H]2O[C@H](CO)[C@@H](O)[C@H]2O)c(=O)[nH]1 [6-azauridine] | 0.61 ± 0.18 log10 | – | – | 0.25 ± 0.09 | > 100 µM | log reduction at 10 µM [2, 7]: 0.12 ± 0.05; log reduction at 100 µM [2, 8]: -0.36 ± 0.16
4 | Nc1n[nH]c(N)n1 [Guanazole] | 0.07 ± 0.03 log10 | 0.05 ± 0.08 | 0.32 ± 0.08 | – | – | EC90 ([2]; Hepatitis C virus, 96 h): > 100 µM; log reduction at 100 µM [2, 9]: 0.25 ± 0.11
5 | O=c1ccn(C2OC(CO)C(O)C2(F)F)c(=O)[nH]1 (centres unmarked) [dFdU] | – | – | – | – | – | dCt rRNA ([1]; 7.0 μM): 1.96; dCT HCV ([2]; 7.0 μM): 6.39; ddCt ([2]; 7.0 μM, HCV dCt minus rRNA dCt): 4.42
6 | Nc1ccn([C@@H]2O[C@H](CO)[C@@H](O)C2(F)F)c(=O)n1 [gemcitabine HCl] | – | – | – | – | – | tolerance / adverse events [3]: acceptable
7 | O=c1cnn([C@@H]2O[C@H](CO)[C@@H](O)[C@H]2O)c(=S)[nH]1 [2-thio-6-azauridine] | −0.02 ± 0.12 log10 | – | – | – | – | Corrected HCV RNA log10 reduction at 10 μM ([2]; 10 μM, corrected for rRNA): 0.12 ± 0.10 log10; log10 RNA reduction at 100 μM, HCV [2, 10]: 0.16 ± 0.04 log10; Corrected HCV RNA log10 reduction at 100 μM ([2]; 100 μM, corrected for rRNA): 0.19 ± 0.09 log10; EC90 ([2]; 96 h incubation): > 100 µM
8 | Nc1ccn(C2OC(CO)C(O)C2=CF)c(=O)n1 (centres unmarked) [Tezacytabine] | 1.78 ± 0.69 log10 | – | – | – | – | Corrected HCV RNA log10 reduction at 10 μM ([2]; 10 μM, corrected for rRNA): 0.63 ± 0.07 log10; log10 RNA reduction at 100 μM, HCV [2, 10]: 1.59 ± 0.08 log10; Corrected HCV RNA log10 reduction at 100 μM ([2]; 100 μM, corrected for rRNA): −0.19 ± 0.49 log10; EC90 ([2]; 96 h incubation): > 100 µM
9 | CN(Cc1cnc2nc(N)nc(N)c2n1)c1ccc(C(=O)N[C@@H](CCC(=O)O)C(=O)O)cc1 [Methotrexate] | 0.07 ± 0.10 log10 | 0.15 ± 0.01 | 0.11 ± 0.09 | 0.18 ± 0.01 | > 100 µM | –
10 | CC(=O)N(O)CCCCCNC(=O)CCC(=O)N(O)CCCCCNC(=O)CCC(=O)N(O)CCCCCN [Deferoxamine] | 0.92 ± 0.08 log10 | – | – | – | > 100 µM | Corrected HCV RNA log10 reduction at 10 μM ([2]; 10 μM, corrected for rRNA): 0.17 ± 0.11 log10; log reduction at 100 µM [2, 8]: 0.08 ± 0.03
11 | COc1c(C)c2c(c(O)c1CCOP(=O)(O)CP(=O)(O)OC[C@H]1O[C@@H](n3cnc4c(N)ncnc43)[C@H](O)[C@@H]1O)C(=O)OC2 [C2-MAD] | 1.00 ± 0.15 log10 | – | – | – | – | Corrected HCV RNA log10 reduction at 10 μM ([2]; 10 μM, corrected for rRNA): 0.36 ± 0.21 log10; log10 RNA reduction at 100 μM, HCV [2, 10]: 1.09 ± 0.21 log10; Corrected HCV RNA log10 reduction at 100 μM ([2]; 100 μM, corrected for rRNA): 0.08 ± 0.24 log10; EC90 ([2]; 96 h incubation): > 100 µM
12 | Nc1ccn([C@@H]2C=C(CO)[C@@H](O)[C@H]2O)c(=O)n1 [CPE-C, cyclopentenylcytosine] | 1.21 ± 0.16 log10 | – | – | 2.47 ± 0.33 | – | EC90 ([2]; 96 h incubation): 2.5 µM; log reduction at 10 µM [2, 7]: 1.43 ± 0.01; log reduction at 100 µM [2, 8]: 1.26 ± 0.51
13 | O=C1C(O)=C(CC=C(Cl)Cl)C(=O)c2ccccc21 [Dichloroallyl lawsone (NSC-126771), Dichloroallyl lawsone] | 2.13 ± 0.15 log10 | – | – | – | – | Corrected HCV RNA log10 reduction at 10 μM ([2]; 10 μM, corrected for rRNA): −0.52 ± 0.01 log10; log10 RNA reduction at 100 μM, HCV [2, 10]: 1.27 ± 0.02 log10; Corrected HCV RNA log10 reduction at 100 μM ([2]; 100 μM, corrected for rRNA): −0.86 ± 0.17 log10; EC90 ([2]; 96 h incubation): > 100 µM
14 | O=C(O)C[C@H](NC(=O)CP(=O)(O)O)C(=O)O [PALA, N-(Phosphonoacetyl)-L-aspartate] | 0.48 ± 0.02 log10 | 1.18 ± 0.11 | 1.3 ± 0.05 | 1.77 ± 0.02 | – | EC90 ([2]; Hepatitis C virus, 96 h): 7.6 µM
15 | NC(=O)NO [Hydroxyurea] | 0.25 ± 0.20 log10 | – | -0.08 ± 0.16 | 0.17 ± 0.08 | > 100 µM | log reduction at 10 µM [2, 7]: 0.06 ± 0.04
16 | NC(=O)c1csc([C@@H]2O[C@H](CO)[C@@H](O)[C@H]2O)n1 [Tiazofurin] | 0.99 ± 0.35 log10 | 0.04 ± 0.1 | -0.13 ± 0.37 | – | – | EC90 ([2]; Hepatitis C virus, 96 h): > 100 µM; log reduction at 100 µM [2, 9]: 0.86 ± 0.27
17 | NC(=O)c1ncn([C@@H]2O[C@H](CO)[C@@H](O)[C@H]2O)c1O [Mizoribine] | 0.21 ± 0.50 log10 | -0.14 ± 0.12 | 0.08 ± 0.82 | 0.29 ± 0.74 | > 100 µM | –
18 | COc1c(C)c2c(c(O)c1C/C=C(\C)CCC(=O)O)C(=O)OC2 [Mycophenolic acid] | 1.09 ± 0.28 log10 | 0.22 ± 0.01 | 0.07 ± 0.47 | 1.15 ± 0.43 | > 100 µM | –
